pKd: −log10 of the molar value.
What was measured:
LecA [1] = biological target: T1, LecA (Pseudomonas aeruginosa, UniProt Q05097); assay: Isothermal titration calorimetry (ITC) of ligand binding to LecA; conditions: ITC Kd, E-isomer the better binder
T1 construct: LecA was expressed and purified as previously described; made in house
Source text: The interaction of compounds 1–5 with LecA was characterized by ITC analysis for both the E- and Z-isomers. As the initial isomer state of the galactosyl azobenzenes is the E-form, ITC measurements made on E-isomers correspond to 100% purity of them. After 370 nm irradiation to induce the photoizomerisation process, a photostationary state is reached between E- and Z-isomers. For ITC measurements made on Z-isomers, the percentage of isomers is shown in the column Z/E (PSS370) of Table 1. Depending on the corresponding galactosyl azobenzenes, the Z-isomer is pure from 87 to 99%. Spectroscopy measurements were performed on ligand solution just before each experiment to check the efficiency of the isomerization, with results as indicated in Table 2.
Isothermal titration calorimetry: LecA was expressed and purified as previously described. All experiments were performed at 25 °C with an ITC200 isothermal titration calorimeter (Microcal-Malvern Panalytical, Grenoble, France). The lyophilized LecA protein was dissolved in a buffer composed of 20 mM Tris^.HCl (pH 7.5), 100 mM NaCl and 100 μM CaCl2 with 5% or 10% DMSO final. All compounds were first dissolved in DMSO then in same buffer for a final concentration of 5% or 10% DMSO. […]

[2] = Photostationary state composition (E/Z ratios) by 1H NMR and UV–vis after irradiation; format: physicochemical; conditions: for Z/E PSS370: after 370 nm irradiation; for E/Z PSS485: after 485 nm irradiation; for E-isomer mixed with the Z-isomer as established by PSS370: Z-isomer samples used for ITC
Experimental: General experimental details. Commercially available solvents and reagents were used without further purification. Reactions carried out under anhydrous conditions are performed under argon in glassware previously dried in an oven. DMF and THF were previously dried through alumina or molecular sieves-containing cartridges using a solvent purificator MBRAUN SPS-800. All the reactions with azobenzene-containing substrates were carried out in the dark. Reactions were monitored by TLC on Silica Gel 60F-254 plates with detection by UV (254 nm or 365 nm) or by spraying with 10% H2SO4 in EtOH and heating about 30 s at 400–600 °C. Column chromatography purification was performed on CombiFlash® Rf+ and RediSep® RF or RF Gold normal phase silica columns (with UV detection at 254 and 350 nm for all azobenzene derivatives), or by flash column chromatography employing silica gel (60 Å pore size, 40–63 µm). ^1H and ^13C NMR spectra were recorded on a JEOL ECS-400 spectrometer or on Bruker Avance 300 and 400 spectrometers. Structural assignments were made with additional information from gCOSY, HMBC, and gHMQC experiments. High-resolution mass spectra (HRMS) were performed on a Bruker maXis mass spectrometer by the SALSA platform from ICOA laboratory or on an Agilent 1260 Infinity system with a quadrupole time-of-light (Q-TOF) mass analyzer. Melting points were measured with a Köfler bench previously calibrated using the usual standard references or on a digital melting point capillary apparatus. Specific optical rotations were measured in solution using sodium light at 589 nm where no absorption occurred for all compounds. Absorption spectra were recorded on a Cary-5000 spectrophotometer from Agilent Technologies. Photochromic reactions were induced in situ by a continuous irradiation Hg/Xe lamp (Hamamatsu, LC6- or LC8-Lightningcure, 200 W) equipped with narrow band interference filters of appropriate wavelengths: Semrock BP-370/36 for λirr = 370 nm, Semrock FF01-438/24-25 for λirr = 438 nm, Semrock FF01-485/20-25 for λirr = 485 nm. The irradiation power was measured using a photodiode from Ophir (PD300-UV) and corrected after a measurement with an additional Schott long pass filter (LP-545) to measure NIR contribution (PLP) that is let through the Semrock filter (PTotal), considering a 90% transmittance: Pλirr = PTotal − (10/9 × PLP). The photoconversion reaction was followed by a combination of ^1H NMR and UV–vis absorption spectra, realized by successive irradiations at 370 nm (438 or 485 nm). The E/Z ratios were determined by integration of the azobenzene proton signals of each isomer. A quartz cell of 10 mm path length has been used for solution measurement.
The photoconversion yields were measured from a solution of the compounds in deuterated solvent and monitored by ^1H NMR and UV–vis absorption, after successive irradiations at 370 nm (438 nm or 485 nm) in the case of the PSS. The E/Z ratios were determined by integration of characteristic of each isomer.

[3] = Fatigue resistance under alternated UV/vis irradiation cycles; format: physicochemical; conditions: alternated UV (370 nm) and visible irradiation cycles, aqueous media
Source text: Figure 2 (Left) Absorption spectra and (right) fatigue resistance of 1 under alternated 370/485 nm irradiations in Tris buffer/DMSO 95:5 at rt: E-1 (black line), PSS370 (blue line), PSS485 (red line). Irradiation conditions at 370 nm: 12.8 mW·cm^−2, 20 s; at 485 nm: 1.5 mW·cm^−2, 480 s.
General procedure for the fatigue resistance measurements
Starting from a solution of compound containing 100% of the E-isomer, the solution was irradiated sequentially at 370 nm and at 485 nm or 438 nm. The absorbance was measured before and after each illumination realized with constant optical length distance. The sequence, which constitutes a cycle, was repeated for a minimum of 10 times.
Fatigue resistance of the compound 2
Figure S15: Left: absorption spectra of E-2 (black line), PSS370 (blue line), PSS438 (red line) in Tris buffer/ DMSO (9/1); Right: Fatigue resistance followed by the absorption band at 3 21 nm under alternate 3 70 nm/438 nm irradiation cycles in Tris buffer/DMSO (9/1). Irradiation conditions: 40 s at P 370 = 14.1 mW cm-2 and 180 s at P 438 […]
Fatigue resistance of the compound 3
Figure S16: Left: absorption spectra of E-3 (black line), PSS 370 (blue line), PSS 485 (red line) in Tris buffer/DMSO (9/1); Right: Fatigue resistance followed by the absorption band at 3 64 nm under alternate 3 70 nm/485 nm irradiation cycles in Tris buffer/DMSO (9/1). […]

[4] = Thermal Z→E isomerization tracked by UV–vis absorption (half-life of Z-isomers); format: physicochemical; conditions: Tris buffer with 5% DMSO, pH 7.5, solvent not given; read-out: t1/2 (thermostability of Z-isomer) (converted)
Source text: The photoswitching properties of galactosyl azobenzenes 1–5 were realized in water or in Tris buffer containing 5 to 10% DMSO, in accordance with the biophysical evaluation conditions by using ITC. All these compounds undergo reversible photoisomerization under UV–vis irradiation in aqueous solution. […] After irradiation at 370 nm to induce the E-to-Z photoisomerization, the band at 353 nm decreases concomitantly to the appearance of two new bands at 312 and 438 nm (Figure 2, blue line). Two isosbestic points can also be observed at 310 and 429 nm. The back Z→E photoisomerization can be achieved by illumination at 485 nm (Figure 2, red line). ^1H NMR spectroscopy has been used to determine the Z/E ratios during irradiation, showing an excellent photoconversion yield of Z/E = 99:1 at PSS370, and E/Z = 87:13 at PSS485 in D2O/5% DMSO (Figure 3). […] All the photophysical properties of compounds 1–5 are summarized in Table 1 (spectra are shown in Figure S1–S24 in Supporting Information File 1). Concerning the meta-substituted azobenzene 2, a 30 nm blue shift is observed for the π→π* transition (λmax = 321 nm) as well as a lower absorption coefficient compared to the para-derivative 1 (Table 1, entries 3 and 4 vs entries 1 and 2), probably due to less-conjugated azobenzene. […]
The half-lif e o f Z -1 at roo m temperatur e wa s the n calculated: […]

LecA [5] = biological target: T1, LecA; conditions: ref [5]–[8][32]; cited from earlier work

T1 sequence (Q05097 whole entry): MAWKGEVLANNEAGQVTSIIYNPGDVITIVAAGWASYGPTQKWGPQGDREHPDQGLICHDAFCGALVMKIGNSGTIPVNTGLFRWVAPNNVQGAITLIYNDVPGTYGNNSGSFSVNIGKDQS

| Z/E PSS370 ([2]; Tris/DMSO 10%) | E-isomer mixed with the Z-isomer as established by PSS370 [2] [%] | E/Z PSS485 ([2]; Tris/DMSO 10%) | Structure (SMILES) | difference in affinity between E- and Z-isomers (LecA [1]) [fold] | Z/E PSS370 ([2]; H2O) | E/Z PSS485 ([2]; H2O) | Z/E PSS370 ([2]; Tris/DMSO 5%) | E/Z PSS485 ([2]; Tris/DMSO 5%) | also measured |
| --- | --- | --- | --- | --- | --- | --- | --- | --- | --- |
|  |  |  | NCCOc1ccc(/N=N/c2ccc(O[C@@H]3O[C@H](CO)[C@H](O)[C@H](O)[C@H]3O)cc2)cc1 [compound 1] | 3 | 99/1 | 87/13 | 99/1 | 87/13 | fatigue resistance [3]: no degradation has been observed after more than 10 UV–vis irradiation cycles |
| 87/13 | 13 |  | NCCOc1cccc(/N=N/c2cccc(O[C@@H]3O[C@H](CO)[C@H](O)[C@H](O)[C@H]3O)c2)c1 [compound 2] |  |  |  | 87/13 | 71/29 | E/Z PSS438 ([2]; Tris/DMSO 10%, after 438 nm irradiation (footnote d)): 74/26^d; half-life [4]: 29 days |
| 99/1 |  | 72/28 | NCCOc1ccc(/N=N/c2cccc(S[C@@H]3O[C@H](CO)[C@H](O)[C@H](O)[C@H]3O)c2)cc1 [compound 4] |  |  |  |  |  |  |
| 92/8 | 8 | 60/40 | NCCOc1ccc(/N=N/c2ccccc2S[C@@H]2O[C@H](CO)[C@H](O)[C@H](O)[C@H]2O)cc1 [compound 5] |  |  |  |  |  |  |
|  |  |  | O=C[C@H](O)[C@@H](O)[C@@H](O)[C@H](O)CO [ᴅ-galactose] |  |  |  |  |  | pKd (LecA [5]): 4.47 |

| Structure (SMILES) | Z/E PSS370 ([2]; Tris/DMSO 10%) | E-isomer mixed with the Z-isomer as established by PSS370 [2] [%] | E/Z PSS485 ([2]; Tris/DMSO 10%) | difference in affinity between E- and Z-isomers (LecA [1]) [fold] | Z/E PSS370 ([2]; H2O) | E/Z PSS485 ([2]; H2O) | Z/E PSS370 ([2]; Tris/DMSO 5%) | E/Z PSS485 ([2]; Tris/DMSO 5%) | also measured |
| --- | --- | --- | --- | --- | --- | --- | --- | --- | --- |
| NCCOc1ccc(/N=N/c2ccc(S[C@@H]3O[C@H](CO)[C@H](O)[C@H](O)[C@H]3O)cc2)cc1 [compound 3] | 99/1 |  | 71/29 | 2 | 99/1 | 73/27 |  |  |  |
